Patent US11512079B2, “Heterocycle substituted pyridine derivative antifungal agents” (Amplyx Pharmaceuticals, Inc., priority 2017, dated 2022)
In brackets after ≈: the same amount, converted by molar mass.

Tests used:
Format in all cases: cell-based
[1] = test system: Cryptococcus neoformans H99; assay: In vitro antifungal assay (Example IX), microdilution broth, MIC; conditions: minimum inhibitory concentration (≥50% inhibition), 35° C., 72 h, RPMI1640
In short: (§1)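 CLSI broth microdilution in RPMI1640 with 2.5×10^3 cells/mL and final compound concentrations of 2-0.0019 μg/mL (1% DMSO). C. albicans 90028 plates were incubated at 35° C. for 40-48 h and C. neoformans H99 for 72 h. MIC was read as minimum inhibitory concentration, verified at 600 nm.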

[2] = test system: Candida albicans 90028; assay: as above; conditions: minimum inhibitory concentration (≥50% inhibition), 35° C., 40-48 h, RPMI1640
In short: as §1

[3] = test system: Rhizomucor pusillus 46342; assay: In vitro antifungal assay (Example IX), microdilution broth, MEC; conditions: minimum effective concentration (shortening of hyphae), 35° C., 40-48 h, RPMI1640
In short: (§2)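 Spore suspensions of A. fumigatus and R. pusillus adjusted to 1-2×10^4 spores/mL in RPMI1640 and exposed to compound dilutions prepared in DMSO, by broth microdilution. MEC taken as the lowest concentration shortening hyphae versus DMSO control wells, read as for echinocandins.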

[4] = test system: Aspergillus fumigatus MYA3626; assay: as above; conditions: minimum effective concentration (shortening of hyphae), 35° C., 40-48 h, RPMI1640
In short: as §2

[5] = test system: Cryptococcus gattii; assay: In vitro antifungal assay (Example IX), microdilution broth, MIC; conditions: minimum inhibitory concentration (≥50% inhibition), 35° C., 72 h (Cryptococcus), RPMI1640
In short: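 Broth microdilution in RPMI1640 with 2.5×10^3 cells/mL inoculum; final compound concentrations were 2–0.0019 μg/mL, with 1% DMSO. Cryptococcus plates were incubated at 35 °C for 72 h, and growth was read at 600 nm to give the MIC.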

| Structure (SMILES) | MIC [1] | MIC [2] | minimal effective concentration [3] | minimal effective concentration [4] | MIC [5] |
| --- | --- | --- | --- | --- | --- |
| Nc1ncccc1-c1cc(Cc2ccc(/C=C/C3CCCCC3)cc2)no1 [compound 99, (E)-3-(3-(4-(2-cyclohexylvinyl)benzyl)isoxazol-5-yl)pyridin-2-amine] | 0.1 to 1 µg/mL (≈ 0.278 to 2.78 µM) | > 1 µg/mL | > 1 µg/mL | 0.1 to 1 µg/mL | 0.1 to 1 µg/mL (≈ 0.278 to 2.78 µM) |
| Nc1ncccc1-c1cc(Cc2ccc(CCC3CCCCC3)cc2)no1 [compound 100, 3-(3-(4-(2-cyclohexylethyl)benzyl)isoxazol-5-yl)pyridin-2-amine] | 0.1 to 1 µg/mL (≈ 0.277 to 2.77 µM) | 0.1 to 1 µg/mL (≈ 0.277 to 2.77 µM) | > 1 µg/mL | 0.1 to 1 µg/mL | 0.1 to 1 µg/mL (≈ 0.277 to 2.77 µM) |
| Nc1ncccc1-c1cnn(Cc2ccc(OCc3ccccc3)nc2)c1 [compound 101, 3-(1-((6-(benzyloxy)pyridin-3-yl)methyl)-1H-pyrazol-4-yl)pyridin-2-amine] | 0.01 to 0.1 µg/mL (≈ 0.028 to 0.28 µM) | 0.1 to 1 µg/mL (≈ 0.28 to 2.8 µM) | > 1 µg/mL | 0.1 to 1 µg/mL | 0.01 to 0.1 µg/mL (≈ 0.028 to 0.28 µM) |
| Nc1ncccc1-c1cc(Cc2ccc(COc3cccnc3)cc2)no1 [compound 105, 3-(3-(4-((pyridin-3-yloxy)methyl)benzyl)isoxazol-5-yl)pyridin-2-amine] | 0.1 to 1 µg/mL (≈ 0.279 to 2.79 µM) | 0.01 to 0.1 µg/mL (≈ 0.0279 to 0.279 µM) | > 1 µg/mL | 0.1 to 1 µg/mL | 0.01 to 0.1 µg/mL (≈ 0.0279 to 0.279 µM) |
| Nc1ncccc1-c1cc(Cc2ccc(CNc3ccccc3F)cc2)no1 [compound 106, 3-(3-(4-(((2-fluorophenyl)amino)methyl)benzyl)isoxazol-5-yl)pyridin-2-amine] | 0.1 to 1 µg/mL (≈ 0.267 to 2.67 µM) | 0.01 to 0.1 µg/mL (≈ 0.0267 to 0.267 µM) | 0.1 to 1 µg/mL | 0.01 to 0.1 µg/mL | 0.01 to 0.1 µg/mL (≈ 0.0267 to 0.267 µM) |
| Nc1ncccc1-c1cc(Cc2ccc(CNc3cccc(F)c3)cc2)no1 [compound 107, 3-(3-(4-(((3-fluorophenyl)amino)methyl)benzyl)isoxazol-5-yl)pyridin-2-amine] | 0.01 to 0.1 µg/mL (≈ 0.0267 to 0.267 µM) | 0.01 to 0.1 µg/mL (≈ 0.0267 to 0.267 µM) | 0.01 to 0.1 µg/mL | 0.01 to 0.1 µg/mL | 0.01 to 0.1 µg/mL (≈ 0.0267 to 0.267 µM) |
| Nc1ncccc1-c1cc(Cc2ccc(CNc3cccc(F)c3F)cc2)no1 [compound 108, 3-(3-(4-(((2,3-difluorophenyl)amino)methyl)benzyl)isoxazol-5-yl)pyridin-2-amine] | 0.1 to 1 µg/mL (≈ 0.255 to 2.55 µM) | 0.01 to 0.1 µg/mL (≈ 0.0255 to 0.255 µM) | 0.1 to 1 µg/mL | 0.01 to 0.1 µg/mL | 0.1 to 1 µg/mL (≈ 0.255 to 2.55 µM) |
| Nc1ncccc1-c1cc(Cc2ccc(Oc3ccccn3)cc2)no1 [compound 110, 3-(3-(4-(pyridin-2-yloxy)benzyl)isoxazol-5-yl)pyridin-2-amine] | 0.01 to 0.1 µg/mL (≈ 0.029 to 0.29 µM) | 0.01 to 0.1 µg/mL (≈ 0.029 to 0.29 µM) | 0.1 to 1 µg/mL | 0.01 to 0.1 µg/mL | ≤ 0.01 µg/mL |
| Nc1ncccc1-c1cc(Cc2ccc(OCc3nccs3)cc2)no1 [compound 112, 3-(3-(4-(thiazol-2-ylmethoxy)benzyl)isoxazol-5-yl)pyridin-2-amine] | 0.01 to 0.1 µg/mL (≈ 0.0274 to 0.274 µM) | 0.1 to 1 µg/mL (≈ 0.274 to 2.74 µM) | 0.1 to 1 µg/mL | 0.01 to 0.1 µg/mL | 0.01 to 0.1 µg/mL (≈ 0.0274 to 0.274 µM) |
| Cc1cncc(COc2ccc(Cc3cc(-c4cccnc4N)on3)cc2)c1 [compound 114, 3-(3-(4-((5-methylpyridin-3-yl)methoxy)benzyl)isoxazol-5-yl)pyridin-2-amine] | 0.1 to 1 µg/mL (≈ 0.269 to 2.69 µM) | 0.1 to 1 µg/mL (≈ 0.269 to 2.69 µM) | > 1 µg/mL | 0.01 to 0.1 µg/mL | 0.1 to 1 µg/mL (≈ 0.269 to 2.69 µM) |
| Nc1ncccc1-c1cc(Cc2ccc(OCc3cncc(F)c3)cc2)no1 [compound 115, 3-(3-(4-((5-fluoropyridin-3-yl)methoxy)benzyl)isoxazol-5-yl)pyridin-2-amine] | 0.1 to 1 µg/mL (≈ 0.266 to 2.66 µM) | 0.1 to 1 µg/mL (≈ 0.266 to 2.66 µM) | > 1 µg/mL | 0.01 to 0.1 µg/mL | 0.1 to 1 µg/mL (≈ 0.266 to 2.66 µM) |
| Nc1ncccc1-c1cc(Cc2ccc(OCc3ccnc(Cl)c3)cc2)no1 [compound 117, 3-(3-(4-((2-chloropyridin-4-yl)methoxy)benzyl)isoxazol-5-yl)pyridin-2-amine] | 0.01 to 0.1 µg/mL (≈ 0.0255 to 0.255 µM) | 0.1 to 1 µg/mL (≈ 0.255 to 2.55 µM) | > 1 µg/mL | 0.01 to 0.1 µg/mL | ≤ 0.01 µg/mL |
| N#Cc1cccc(COc2ccc(Cc3cc(-c4cccnc4N)on3)cc2)n1 [compound 118, 6-((4-((5-(2-aminopyridin-3-yl)isoxazol-3-yl)methyl)phenoxy)methyl)picolinonitrile] | 0.1 to 1 µg/mL (≈ 0.261 to 2.61 µM) | 0.1 to 1 µg/mL (≈ 0.261 to 2.61 µM) | > 1 µg/mL | 0.1 to 1 µg/mL | 0.1 to 1 µg/mL (≈ 0.261 to 2.61 µM) |
| Nc1ncccc1-c1cc(Cc2ccc(Cc3ccoc3)cc2)no1 [compound 120, 3-(3-(4-(furan-3-ylmethyl)benzyl)isoxazol-5-yl)pyridin-2-amine] | 0.01 to 0.1 µg/mL (≈ 0.0302 to 0.302 µM) | 0.01 to 0.1 µg/mL (≈ 0.0302 to 0.302 µM) | 0.1 to 1 µg/mL | ≤ 0.01 µg/mL | 0.01 to 0.1 µg/mL (≈ 0.0302 to 0.302 µM) |
| Nc1ncccc1-c1cc(Cc2ccc(Cc3ccco3)cc2)no1 [compound 121, 3-(3-(4-(furan-2-ylmethyl)benzyl)isoxazol-5-yl)pyridin-2-amine] | 0.01 to 0.1 µg/mL (≈ 0.0302 to 0.302 µM) | 0.01 to 0.1 µg/mL (≈ 0.0302 to 0.302 µM) | 0.01 to 0.1 µg/mL | ≤ 0.01 µg/mL | 0.01 to 0.1 µg/mL (≈ 0.0302 to 0.302 µM) |
| Cc1ccc(Cc2ccc(Cc3cc(-c4cccnc4N)on3)cc2)o1 [compound 122, 3-(3-(4-((5-methylfuran-2-yl)methyl)benzyl)isoxazol-5-yl)pyridin-2-amine] | 0.01 to 0.1 µg/mL (≈ 0.029 to 0.29 µM) | ≤ 0.01 µg/mL | 0.01 to 0.1 µg/mL | ≤ 0.01 µg/mL | 0.01 to 0.1 µg/mL (≈ 0.029 to 0.29 µM) |
| Nc1ncccc1-c1cc(Cc2ccc(CC3=CCOC3)cc2)no1 [compound 123, 3-(3-(4-((2,5-dihydrofuran-3-yl)methyl)benzyl)isoxazol-5-yl)pyridin-2-amine] | 0.1 to 1 µg/mL (≈ 0.3 to 3 µM) | 0.01 to 0.1 µg/mL (≈ 0.03 to 0.3 µM) | > 1 µg/mL | 0.01 to 0.1 µg/mL | 0.01 to 0.1 µg/mL (≈ 0.03 to 0.3 µM) |
| Nc1ncccc1-c1cc(Cc2ccc(Cc3ccc(F)o3)cc2)no1 [compound 124, 3-(3-(4-((5-fluorofuran-2-yl)methyl)benzyl)isoxazol-5-yl)pyridin-2-amine] | 0.01 to 0.1 µg/mL (≈ 0.0286 to 0.286 µM) | 0.01 to 0.1 µg/mL (≈ 0.0286 to 0.286 µM) | 0.01 to 0.1 µg/mL | 0.01 to 0.1 µg/mL | 0.01 to 0.1 µg/mL (≈ 0.0286 to 0.286 µM) |
| Nc1ncccc1-c1cc(Cc2cnc(SCc3ccccc3)nc2)no1 [compound 125, 3-(3-((2-(benzylthio)pyrimidin-5-yl)methyl)isoxazol-5-yl)pyridin-2-amine] | > 1 µg/mL | 0.1 to 1 µg/mL (≈ 0.266 to 2.66 µM) | > 1 µg/mL | 0.1 to 1 µg/mL | > 1 µg/mL |
| Nc1ncccc1-c1cc(Cc2ccc(OCc3ccccc3F)nc2)no1 [compound 127, 3-(3-((6-((2-fluorobenzyl)oxy)pyridin-3-yl)methyl)isoxazol-5-yl)pyridin-2-amine] | 0.01 to 0.1 µg/mL (≈ 0.0266 to 0.266 µM) | 0.01 to 0.1 µg/mL (≈ 0.0266 to 0.266 µM) | 0.1 to 1 µg/mL | ≤ 0.01 µg/mL | 0.01 to 0.1 µg/mL (≈ 0.0266 to 0.266 µM) |
| Nc1ncccc1-c1cc(Cc2ccc(Oc3cccc(F)c3)nc2)no1 [compound 130, 3-(3-((6-(3-fluorophenoxy)pyridin-3-yl)methyl)isoxazol-5-yl)pyridin-2-amine] | ≤ 0.01 µg/mL | 0.01 to 0.1 µg/mL (≈ 0.0276 to 0.276 µM) | 0.1 to 1 µg/mL | 0.01 to 0.1 µg/mL | 0.01 to 0.1 µg/mL (≈ 0.0276 to 0.276 µM) |
| Nc1ncccc1-c1cc(Cc2ccc(Oc3ccccc3F)nc2)no1 [compound 131, 3-(3-((6-(2-fluorophenoxy)pyridin-3-yl)methyl)isoxazol-5-yl)pyridin-2-amine] | 0.01 to 0.1 µg/mL (≈ 0.0276 to 0.276 µM) | 0.01 to 0.1 µg/mL (≈ 0.0276 to 0.276 µM) | 0.1 to 1 µg/mL | 0.01 to 0.1 µg/mL | 0.01 to 0.1 µg/mL (≈ 0.0276 to 0.276 µM) |
